Patent publication US20250145665A1, “MACROCYCLIC PEPTIDES USEFUL AS MODULATORS OF TNF ALPHA” (Bristol-Myers Squibb Company, priority 2023, published 2025)
Starred links: 1 amine or outer side, 2 acyl side, 3 side chain; linkers in the order of their positions; H or OH if unused. Positions of bridges follow the written chain, without caps; N, C: chain ends. Non-standard residues stand in square brackets, D forms with d. Residues, ends and D or L forms follow the SMILES beside them. *: point of attachment. Bip(4'-NHBz) = N[C@@H](Cc1ccc(-c2ccc(NC(=O)c3ccccc3)cc2)cc1)C(=O)O; Bip(4'-NH) = O=C([C@H](Cc1ccc(-c2ccc(N[*:3])cc2)cc1)N[*:1])[*:2]; Bip(4'-CONHMe) = CNC(=O)c1ccc(-c2ccc(C[C@H](N)C(=O)O)cc2)cc1; dArg(ω-Bn(3-CH2OH)) = N=C(NCCC[C@@H](N)C(=O)O)NCc1cccc(CO)c1; Indazole3carbonyl(1-CH2COOH) = O=C(O)Cn1nc(C(=O)*)c2ccccc21; Bip(4'-NHAc) = CC(=O)Nc1ccc(-c2ccc(C[C@H](N)C(=O)O)cc2)cc1; Ala(morpholin-4-yl) = N[C@@H](CN1CCOCC1)C(=O)O; Phe(3-CONH2) = NC(=O)c1cccc(C[C@H](N)C(=O)O)c1; X59 = O=C([C@H](Cc1c(F)cc(F)cc1F)N[*:1])[*:2]; Bip = N[C@@H](Cc1ccc(-c2ccccc2)cc1)C(=O)O; X24 = O=C(O)COc1cc(-c2ccccc2)ccc1C(=O)*; Tic = O=C(O)[C@@H]1Cc2ccccc2CN1; Cha = N[C@@H](CC1CCCCC1)C(=O)O; Chg = N[C@H](C(=O)O)C1CCCCC1; Sar = CNCC(=O)O

Target: TNFα (Homo sapiens, UniProt P01375)
Sequence (P01375 77-233 limits assumed): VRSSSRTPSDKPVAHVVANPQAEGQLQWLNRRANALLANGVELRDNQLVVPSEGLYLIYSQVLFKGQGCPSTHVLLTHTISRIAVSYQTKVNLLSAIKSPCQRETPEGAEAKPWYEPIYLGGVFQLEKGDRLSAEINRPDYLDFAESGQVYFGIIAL
Experiment: TNF-Induced HEK-Blue Assay
Assay type: cell-based
Details: not given

| Structure (SMILES) | IC50 |
| --- | --- |
| CC[C@H](C)[C@@H]1NC(=O)[C@@H](CCCNC(=N)N)NC(=O)[C@H](CC(=O)O)NC(=O)[C@H](Cc2cnc[nH]2)NC(=O)CN(C)C(=O)[C@H](Cc2ccc(-c3ccc(NC(=O)c4ccccc4)cc3)cc2)NC(=O)[C@H](Cc2ccc(-c3ccccc3)cc2)NC(=O)[C@H](CC2CCCCC2)NC(=O)CSC[C@@H](C(=O)NCC(N)=O)NC(=O)[C@H](CC(C)C)NC(=O)[C@H](Cc2cnc[nH]2)NC(=O)[C@H](C(C)C)NC(=O)[C@@H]2CCCN2C1=O [Example 315] ({CH2CO}-[Cha][Bip][Bip(4'-NHBz)][Sar]HD[dR]IPVHLCG-NH2; thioether N-13) | < 50 nM |
| CC(C)C[C@@H]1NC(=O)[C@H](CCCNC(=N)N)NC(=O)[C@H](C(C)C)NC(=O)[C@@H]2CCCN2C(=O)[C@H](C(C)C)NC(=O)[C@@H](CCCNC(=N)NCc2cccc(CO)c2)NC(=O)[C@H](CC(=O)O)NC(=O)[C@@H]2CCCN2C(=O)CN(C)C(=O)[C@H](Cc2ccc(-c3ccc(NC(=O)c4nn(CC(=O)O)c5ccccc45)cc3)cc2)NC(=O)[C@H](Cc2ccc(-c3ccccc3)cc2)NC(=O)[C@H](CN2CCOCC2)NC(=O)CSC[C@@H](C(=O)NCC(N)=O)NC1=O [Example 425] ({CH2CO}-[Ala(morpholin-4-yl)][Bip][Bip(4'-NH)](Indazole3carbonyl(1-CH2COOH))[Sar]PD[dArg(ω-Bn(3-CH2OH))]VPVRLCG-NH2; thioether N-13) | < 50 nM |
| CC(=O)Nc1ccc(-c2ccc(C[C@@H]3NC(=O)[C@H](Cc4ccc(-c5ccccc5)cc4)NC(=O)[C@H](CN4CCOCC4)NC(=O)CSC[C@@H](C(=O)NCC(N)=O)NC(=O)[C@H](CC(C)C)NC(=O)[C@H](Cc4cccc(C(N)=O)c4)NC(=O)[C@H](C4CCCCC4)NC(=O)[C@@H]4CCCN4C(=O)[C@H](C(C)C)NC(=O)[C@@H](CCCNC(=N)N)NC(=O)[C@H](CC(=O)O)NC(=O)[C@H](Cc4ccc(O)cc4)NC(=O)CN(C)C3=O)cc2)cc1 [Example 460] ({CH2CO}-[Ala(morpholin-4-yl)][Bip][Bip(4'-NHAc)][Sar]YD[dR]VP[Chg][Phe(3-CONH2)]LCG-NH2; thioether N-13) | < 50 nM |

Same assay, conditions: HEK-Blue-CD40L cells, NF-kB-driven secreted alkaline phosphatase reporter; TNFα 0.5 ng/ml; 18 h; read-out: TNF induced HEK-Blue assay IC50 value

| IC50 | Structure (SMILES) |
| --- | --- |
| 200 to 2000 nM | CC(C)C[C@@H]1NC(=O)[C@H](CCCNC(=N)N)NC(=O)[C@H](C(C)C)NC(=O)[C@@H]2CCCN2C(=O)[C@H](C(C)C)NC(=O)[C@H](CCCNC(=N)N)NC(=O)[C@H](CC(=O)O)NC(=O)[C@@H]2CCCN2C(=O)CN(C)C(=O)[C@H](Cc2ccc(-c3ccccc3)cc2)NC(=O)[C@H](Cc2ccc(-c3ccccc3)cc2)NC(=O)[C@H](Cc2c(F)cc(F)cc2F)NC(=O)CSC[C@@H](C(=O)NCC(N)=O)NC1=O [Example 31] ({CH2CO}-[X59][Bip][Bip][Sar]PDRVPVRLCG-NH2; thioether N-13) |
| 50 to 200 nM | CC[C@H](C)[C@@H]1NC(=O)[C@@H](CCCNC(=N)N)NC(=O)[C@H](CC(=O)O)NC(=O)[C@H](Cc2cnc[nH]2)NC(=O)CN(C)C(=O)[C@H](Cc2ccc(-c3ccc(NC(=O)c4ccc(-c5ccccc5)cc4OCC(=O)O)cc3)cc2)NC(=O)[C@H](Cc2ccc(-c3ccccc3)cc2)NC(=O)[C@H](CC2CCCCC2)NC(=O)CSC[C@@H](C(=O)NCC(N)=O)NC(=O)[C@H](CC(C)C)NC(=O)[C@H](Cc2cnc[nH]2)NC(=O)[C@H](C(C)C)NC(=O)[C@@H]2CCCN2C1=O [Example 330] ({CH2CO}-[Cha][Bip][Bip(4'-NH)](X24)[Sar]HD[dR]IPVHLCG-NH2; thioether N-13) |
| 50 to 200 nM | CNC(=O)c1ccc(-c2ccc(C[C@@H]3NC(=O)[C@H](CC4CCCCC4)NC(=O)CSC[C@@H](C(=O)NCC(N)=O)NC(=O)[C@H](CC(C)C)NC(=O)[C@H](Cc4ccc(O)cc4)NC(=O)[C@H](C(C)C)NC(=O)[C@@H]4Cc5ccccc5CN4C(=O)[C@H](C(C)C)NC(=O)[C@@H](CCCNC(=N)N)NC(=O)[C@H](CC(=O)O)NC(=O)[C@@H]4CCCN4C(=O)CN(C)C(=O)[C@H](Cc4ccc(-c5ccc(NC(C)=O)cc5)cc4)NC3=O)cc2)cc1 [Example 386] ({CH2CO}-[Cha][Bip(4'-CONHMe)][Bip(4'-NHAc)][Sar]PD[dR]V[Tic]VYLCG-NH2; thioether N-13) |
